Values after ≈ are worked out from the molar mass of the structure shown. Values joined by “and” are separate entries in the source; they are usually repeats but may differ in a detail not shown here. Equal values may be shown once. Where a name gives a salt, the structure may show the parent alone. Read-outs that look alike come from different tables or passages of the source.
Assays:
[1] = tested on: Xanthomonas oryzae pv. oryzae (Xoo); assay: microbe, parasite or virus in culture; assay type: cell-based; conditions: for MIC: Xanthomonas oryzae
[2] = tested on: Xanthomonas oryzae pv. oryzae (Xoo); assay: microbe, parasite or virus in culture; assay type: cell-based; conditions: for EC50 / inhibition at 20 µg/mL / inhibition at 100 µg/mL: Xanthomonas oryzae; for EC50: read-out: EC50 for inhibition of Xoo growth; for inhibition at 20 µg/mL / inhibition at 100 µg/mL: read-out: Inhibition (%) of Xoo growth
Xoo cells = assay type: cell-based, Xanthomonas oryzae pv. oryzae; parameters: average Xoo cell length: unit not given here; conditions: TEM
XooFtsZ [3] = assay type: binding, Xanthomonas oryzae pv. oryzae; conditions: pH 7.4
XooFtsZ [4] = assay type: biochemical, Xanthomonas oryzae pv. oryzae; conditions: TEM, 20 μM XooFtsZ, 100 and 200 μM compound
[5] = tested on: rice bacterial leaf blight infected by Xoo; assay type: in vivo; parameters: curative control efficiency against rice bacterial leaf blight: dose or concentration left out as unconfirmed
[6] = target: T1, recombinant XooFtsZ GTPase (Xanthomonas oryzae pv. oryzae, UniProt A0ACG7R862); assay: biochemical; conditions: for inhibition at 100 µM / inhibition at 200 µM: read-out: Inhibition Rate (%) of XooFtsZ GTPase activity
in vitro = conditions: rat
[7] = tested on: human non-small cell lung cancer cell line (A549)
rice plants = conditions: in vivo
[8] = tested on: rice bacterial leaf blight infected by Xoo; conditions: in vivo; cited from earlier work
[9] = target: T1, recombinant XooFtsZ GTPase; conditions: read-out: IC50 XooFtsZ GTPase activity; cited from earlier work
[10] = read-out: MIC against Xoo, in vitro

SMILES: COc1cc(C2c3cc4c(cc3C(O)C3COC(=O)C23)OCO4)cc(OC)c1OCC1CO1 (stereo not shown) [A1]
- MIC [1, 10]: > 400 µg/mL
- EC50 [2]: > 200 µg/mL
- inhibition at 20 µg/mL [2]: 10.6 ± 0.9%
- inhibition at 100 µg/mL [2]: 18.3 ± 2.15%

SMILES: CCC(CC)C(=O)Oc1c(OC)cc(C2c3cc4c(cc3C(O)C3COC(=O)C23)OCO4)cc1OC (stereo not shown) [B1]
- MIC [1, 10]: > 400 µg/mL
- EC50 [2]: > 200 µg/mL
- inhibition at 20 µg/mL [2]: 5.33 ± 1.13%
- inhibition at 100 µg/mL [2]: 17.4 ± 6%

SMILES: CCCCC(CC)C(=O)Oc1c(OC)cc(C2c3cc4c(cc3C(O)C3COC(=O)C23)OCO4)cc1OC (stereo not shown) [B2]
- average Xoo cell length (Xoo cells; 100 mg L^−1, 12 h): 4.03 ± 2.20
- average Xoo cell length (Xoo cells; 100 mg L^−1, 24 h): 5.86 ± 3.23
- Stern–Volmer quenching constant Kq (XooFtsZ [3]; 10 μM XooFtsZ, 25 °C): 3.845 × 10^11 M^−1 S^−1
- Stern–Volmer quenching constant Ksv (XooFtsZ [3]; 10 μM XooFtsZ, 25 °C): 3845 M⁻¹
- effect on XooFtsZ self-assembly (XooFtsZ [4]): fewer single-stranded protofilaments and an increase in disordered and disorganized protein aggregation
- curative control efficiency against rice bacterial leaf blight ([5]; pot experiments): 54.9%
- protective control efficiency against rice bacterial leaf blight ([5]; pot experiments): 48.4%
- IC50 [6]: 159 ± 16.7 µM
- inhibition at 100 µM [6]: 48.6 ± 4.1%
- inhibition at 200 µM [6]: 54.8 ± 5.2%
- EC50 [2]: 153 ± 9.2 µg/mL (≈ 291 µM)
- inhibition at 20 µg/mL [2]: 7.3 ± 2.2%
- inhibition at 100 µg/mL [2]: 44.2 ± 3.2%
- IC50 (in vitro): 60.8 µM
- cytotoxicity (comparison) [7]: more cytotoxic than either DMEP or gefitinib
- phytotoxicity to rice plants (rice plants): non-toxic

SMILES: COc1cc(C2c3cc4c(cc3C(O)C3COC(=O)C23)OCO4)cc(OC)c1OS(=O)(=O)c1ccc(C)cc1 (stereo not shown) [B3]
- MIC [1, 10]: > 400 µg/mL
- EC50 [2]: > 200 µg/mL
- inhibition at 20 µg/mL [2]: 4.33 ± 0.8%
- inhibition at 100 µg/mL [2]: 10.2 ± 1.2%

SMILES: S=c1[nH]nc(NCNc2n[nH]c(=S)s2)s1 [BT, bismerthiazol]
- MIC against Xoo ([1]; in vitro): 50 µg/mL (≈ 180 µM)
- Inhibition (%) of Xoo growth ([2]; 20 mg L^−1): 30.0 ± 2.20%
- Inhibition (%) of Xoo growth ([2]; 100 mg L^−1): 92.7 ± 1.70%
- EC50 for inhibition of Xoo growth ([2]; in vitro): 36.3 ± 2.50 µg/mL

SMILES: COc1ccc2cc3[n+](cc2c1OC)CCc1cc2c(cc1-3)OCO2 [Berberine, Berberine hydrochloride]
- Stern–Volmer quenching constant Kq (XooFtsZ [3]; 10 μM XooFtsZ, 25 °C): 1.789 × 10^12 M^−1 S^−1
- Stern–Volmer quenching constant Ksv (XooFtsZ [3]; 10 μM XooFtsZ, 25 °C): 17890 M⁻¹
- IC50 [6]: 225 ± 18.5 µM
- inhibition at 100 µM [6]: 34.1 ± 2.6%
- inhibition at 200 µM [6]: 48.7 ± 4.1%

SMILES: COc1cc(C2c3cc4c(cc3C(O)C3COC(=O)C23)OCO4)cc(OC)c1O (stereo not shown) [DMEOP, 4′-demethylpodophyllotoxin]
- Stern–Volmer quenching constant Kq (XooFtsZ [3]): 1.757 × 10^11 M^−1 S^−1
- Stern–Volmer quenching constant Ksv (XooFtsZ [3]): 1757 M⁻¹
- MIC against Xoo [1]: >400 µg/mL
- EC50 for inhibition of Xoo growth [2]: >200 µg/mL

SMILES: COc1cc([C@@H]2c3cc4c(cc3[C@@H](O)[C@H]3COC(=O)[C@H]23)OCO4)cc(OC)c1O [DMEP, 4′-demethylepipodophyllotoxin]
- Stern–Volmer quenching constant Kq (XooFtsZ [3]): 7.593 × 10^11 M^−1 S^−1
- Stern–Volmer quenching constant Ksv (XooFtsZ [3]): 7593 M⁻¹
- MIC against Xoo [1]: 50 µg/mL (≈ 125 µM)
- EC50 for inhibition of Xoo growth [2]: 39.7 µg/mL and 38.7 µg/mL
- curative control efficiency against rice bacterial leaf blight [8]: 50.0%
- protective control efficiency against rice bacterial leaf blight [8]: 46.8%
- IC50 [9]: 279 µM and 278 µM

SMILES: COc1cc([C@@H]2c3cc4c(cc3C[C@H]3COC(=O)[C@@H]32)OCO4)cc(OC)c1OC [Deoxypodophyllotoxin]
- Stern–Volmer quenching constant Kq (XooFtsZ [3]; 10 μM XooFtsZ, 25 °C): 2.276 × 10^11 M^−1 S^−1
- Stern–Volmer quenching constant Ksv (XooFtsZ [3]; 10 μM XooFtsZ, 25 °C): 2276 M⁻¹
- MIC [1, 10]: > 400 µg/mL
- EC50 [2]: > 200 µg/mL
- inhibition at 20 µg/mL [2]: 12.2 ± 4.8%
- inhibition at 100 µg/mL [2]: 10.3 ± 3.5%

SMILES: COc1cc([C@@H]2c3cc4c(cc3[C@@H](O[C@@H]3O[C@@H]5CO[C@@H](C)O[C@H]5[C@H](O)[C@H]3O)[C@H]3COC(=O)[C@H]23)OCO4)cc(OC)c1O [Etoposide]
- effect on Xoo cell morphology (Xoo cells; 100 mg L^−1, 24 h): induced cellular elongation
- Stern–Volmer quenching constant Kq (XooFtsZ [3]; 10 μM XooFtsZ, 25 °C): 2.396 × 10^11 M^−1 S^−1
- Stern–Volmer quenching constant Ksv (XooFtsZ [3]; 10 μM XooFtsZ, 25 °C): 2396 M⁻¹
- MIC [1, 10]: > 400 µg/mL
- EC50 [2]: > 200 µg/mL
- inhibition at 100 µg/mL [2]: 18.8 ± 9.6%

SMILES: COc1cc([C@@H]2c3cc4c(cc3[C@H](O)[C@H]3COC(=O)[C@@H]23)OCO4)cc(OC)c1OC [Picropodophyllotoxin]
- Stern–Volmer quenching constant Kq (XooFtsZ [3]): 3.603 × 10^11 M^−1 S^−1
- Stern–Volmer quenching constant Ksv (XooFtsZ [3]): 3603 M⁻¹
- MIC ([1]; read-out: MIC against Xoo): > 400 µg/mL
- EC50 [2]: > 200 µg/mL

SMILES: COc1cc([C@@H]2c3cc4c(cc3[C@H](O)[C@H]3COC(=O)[C@H]23)OCO4)cc(OC)c1OC [Podophyllotoxin]
- Stern–Volmer quenching constant Kq (XooFtsZ [3]): 2.203 × 10^11 M^−1 S^−1
- Stern–Volmer quenching constant Ksv (XooFtsZ [3]): 2203 M⁻¹
- MIC ([1]; read-out: MIC against Xoo): > 400 µg/mL
- EC50 [2]: > 200 µg/mL

SMILES: Nc1nnc([S-])s1.Nc1nnc([S-])s1.[Cu+2] [TC, Thiodiazole copper]
- curative control efficiency against rice bacterial leaf blight ([5]; in vivo): 31.2%
- protective control efficiency against rice bacterial leaf blight ([5]; in vivo): 30.4%

SMILES: COc1cc([C@@H]2c3cc4c(cc3[C@@H](O[C@@H]3O[C@@H]5CO[C@@H](c6cccs6)O[C@H]5[C@H](O)[C@H]3O)[C@H]3COC(=O)[C@H]23)OCO4)cc(OC)c1O [Teniposide]
- effect on Xoo cell morphology (Xoo cells; 100 mg L^−1, 24 h): induced cellular elongation
- Stern–Volmer quenching constant Kq (XooFtsZ [3]; 10 μM XooFtsZ, 25 °C): 2.920 × 10^11 M^−1 S^−1
- Stern–Volmer quenching constant Ksv (XooFtsZ [3]; 10 μM XooFtsZ, 25 °C): 2920 M⁻¹
- MIC [1, 10]: > 400 µg/mL
- EC50 [2]: > 200 µg/mL
- inhibition at 100 µg/mL [2]: 20.3 ± 9.21%
